Source: patent US20260216348A1, “IRAK DEGRADATION AGENT AND USE THEREOF” (Increland, priority 2023, published 2026)

Tests used:
[1] = system: R848-induced IL-6 secretion in human peripheral blood mononuclear cells (PBMCs); experiment: Inhibition of R848-induced IL-6 secretion in human PBMCs (IL-6 ELISA); assay type: cell-based; settings: PBMC, R848 2.5 μg/mL, 20 h pre-incubation, 24 h stimulation
Description: This experiment was carried out in RPMI 1640 medium containing 10% FBS and 1% penicillin/streptomycin, with each of the compounds at an initial test concentration of 1 μM. The compound was dissolved in DMSO to prepare a stock solution, which was serially diluted into a series of working solutions with a 4-fold concentration gradient using the culture medium and then added to a 96-well plate at 10 μL per well. PBMCs (Batch No.: P122101102C; Milecell Biotechnology Inc.) were counted and diluted to a cell concentration of 1.25×10^6 cells/mL, and then added to the aforementioned compound-containing 96-well plate at 160 μL per well. The system was mixed well and incubated in a 5% CO2 incubator at 37° C. for 20 h. Then 10 μL of R848 (final concentration: 2.5 μg/mL) was added, and the culture was continued for 24 h in a 5% CO2 incubator at 37° C. After incubation, the 96-well plate was centrifuged at 2000 rpm for 4 min. The supernatant was collected and diluted 120-fold, then detected using an IL-6 ELISA kit. The OD450 values were read, and converted to IL-6 concentrations based on a standard curve.

[2] = system: LPS/IL-1β-induced IL-6 secretion in human peripheral blood mononuclear cells (PBMCs); experiment: Inhibition of LPS/IL-1β-induced IL-6 secretion in human PBMCs (IL-6 ELISA); assay type: cell-based; settings: PBMC, LPS 10 ng/mL + IL-1β 20 ng/mL, 24 h pre-incubation, 20 h stimulation
Outline: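 PBMCs preincubated 24 h at 37 °C with compounds (5-fold dilutions from 1 μM) in RPMI/10% FBS, then stimulated 20 h with LPS 10 ng/mL plus IL-1β 20 ng/mL (final). IL-6 in 200-fold diluted supernatant measured by ELISA at OD450 against a standard curve; IC50 from dose-response fitting.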

[3] = Metabolic stability in human liver microsome; assay type: in vitro ADME; settings: NADPH, 60 min; for half-life at 1 µM: liver microsomes, read-out: Human liver microsome (t1/2, min)
Description: Clean incubation plates T60 and NCF60 were preheated at 37° C. for 10 min. Liver microsomes were diluted to a concentration of 0.56 mg/mL with 100 mM phosphate buffer, and 445 μL of the microsome working solution (0.56 mg/mL) was transferred to the preheated incubation plates T60 and NCF60, followed by incubation of the plates T60 and NCF60 with continuous shaking at 37° C. for 10 min. After incubation, 54 μL of liver microsomes were transferred to a blank plate, 6 μL of NAPDH cofactor was added to the blank plate, and then 180 μL of quenching solution was added to the blank plate. 5 μL of the compound working solution (100 μM) was added to the microsome-containing incubation plates T60 and NCF60, and mixed thoroughly 3 times. For plate NCF60, 50 μL of buffer was added and the system was mixed thoroughly 3 times before timing was started, and the plate was incubated with shaking at 37° C. for 60 min. For the quenching plate, 180 μL of quenching solution and 6 μL of NADPH cofactor were added, and the plate was ensured to be cooled to prevent evaporation. For the T60 plate, the mixture was thoroughly mixed 3 times, and 54 μL of the mixture was immediately transferred to the quenching plate at the time point of 0 min. Then 44 μL of the NAPDH cofactor was added to the incubation plate (T60). Timing was started, and the plate was incubated with shaking at 37° C. for 60 min. At the time points of 5, 15, 30, 45, and 60 min, 180 μL of the quenching solution was added to the quenching plate respectively, mixed once, and 60 μL of sample was continuously transferred from the plate T60 to the quenching plate at each time point. For plate NCF60, after mixing once, 60 μL of the sample was transferred from incubation plate NCF60 to the quenching plate containing quenching solution at the 60-min time point. All sampling plates were shaken for 10 min, then centrifuged at 4000 rpm at 4° C. for 20 min. 80 μL of the supernatant was transferred to 240 μL of HPLC water, and mixed using a plate shaker for 10 min. Each bioanalytical plate was sealed and shaken for 10 min before LC-MS/MS analysis.

IRAK4 = molecular target: T1, IRAK4 (Homo sapiens, UniProt Q9NWZ3); experiment: IRAK4 protein degradation in THP1 cells (Western blot); assay type: cell-based; settings: THP-1 cells, 24 h
T1 construct: Effect of the Compounds on IRAK4 Protein Degradation in THP1 Cells; endogenous in cells; host or cells: THP-1 cells
T1 sequence (Q9NWZ3 1-460): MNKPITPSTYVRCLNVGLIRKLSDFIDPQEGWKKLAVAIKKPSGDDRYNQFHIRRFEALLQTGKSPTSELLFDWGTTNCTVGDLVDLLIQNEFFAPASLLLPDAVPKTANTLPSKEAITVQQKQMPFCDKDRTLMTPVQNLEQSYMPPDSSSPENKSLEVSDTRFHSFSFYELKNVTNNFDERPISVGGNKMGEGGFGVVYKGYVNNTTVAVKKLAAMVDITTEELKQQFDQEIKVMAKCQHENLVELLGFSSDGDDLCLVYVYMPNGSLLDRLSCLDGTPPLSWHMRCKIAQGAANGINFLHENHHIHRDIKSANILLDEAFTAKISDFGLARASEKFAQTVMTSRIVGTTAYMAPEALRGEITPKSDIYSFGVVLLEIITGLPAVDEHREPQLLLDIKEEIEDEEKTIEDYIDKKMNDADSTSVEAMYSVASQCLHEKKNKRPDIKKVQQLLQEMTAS
Outline: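 THP-1 cells (2×10^5/well) were treated with 5-fold serial compound dilutions for 24 h at 37 °C, then lysed with proteasome/phosphatase inhibitors. IRAK4 was detected by Western blot with chemiluminescence and semi-quantified by densitometry. DC50 came from the concentration–response.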

[4] = system: DSS-induced enteritis model; experiment: DSS-induced enteritis (colitis) model; assay type: in vivo, mice; settings: po, Model 10.33 ± 1.11, Mean ± SD, n = 7
Excerpt: The experimental mice were pre-acclimatized in the animal facility for one week; at the beginning of the experiment, the mice were given medication intragastrically daily according to their body weight. After the completion of intragastric administration in each group, mice had direct access to water bottles for free drinking. The blank group received normal water, while the other groups received pre-prepared DSS water. Each afternoon, the mice's abdomens were massaged to stimulate defecation, and one fecal pellet was collected onto a white porcelain plate. Fecal consistency was judged and recorded according to Table 30. The fecal occult blood qualitative test kit (Yuanye Biotechnology, #R24187-300T) was used to test for occult blood in feces and the results were interpreted according to Table 31.

IMQ psoriasis model = experiment: IMQ (imiquimod)-induced psoriasis model; assay type: in vivo, BALB/c mice; settings: 100 mg/kg, BID, Mean ± SD, n = 7
Description: Male BALB/c mice, aged 6-8 weeks, were randomly divided into 9 groups after 1 week of acclimatization: blank control group, imiquimod model group (IMQ group, corresponding to the model groups in FIGS. 1 and 2), clobetasol propionate cream group (CLO group), TYKI (BMS-986165) group, IRAK4 protein degrader KT-474 (from patent WO2020113233) group (100 mg/kg), and the compound of the present disclosure (at an appropriate dose), with 6-7 mice in each group. One day before modeling, the hair on the backs of the mice was removed with depilatory cream, with a depilated area of 2×2 cm^2. On the day of modeling, IMQ cream was used for modeling, and the corresponding drugs were administered intragastrically for treatment. The compound of the present disclosure (at an appropriate dose) was administered intragastrically once daily, and IMQ cream was applied to the hairless area on the back and left ear of mice 2 h after the first administration. […] The blank group and the IMQ group were administered with vehicle intragastrically twice daily (in the morning and evening), with an 8-h interval between the two intragastric administrations. At 2 h after the first intragastric administration, vaseline and IMQ cream were applied topically to the depilated back and ears of the mice, respectively. The dosage of IMQ cream administered to the depilated area on the back and the left ear was 80 mg and 10 mg, respectively, and the mice in each group were administered the cream for 5 consecutive days.
Reference was made to the Psoriasis Area and Severity Index (PASI) scoring criteria. The psoriasis, erythema, and thickness of skin lesions on the back were scored from 0 to 4 every morning from day 1 of modeling, with the scoring criteria as shown in Table 28. The 3 were added up to obtain a total score, i.e., a total PASI score. The ear thickness of the left ear of the mouse was measured using a digital vernier caliper three times every morning from day 1 of modeling, to obtain a mean value.

[5] = system: CIA-induced rheumatoid arthritis model; experiment: CIA-induced rheumatoid arthritis model; assay type: in vivo, DBA/1J mice; settings: BID, Model 12.31 ± 2.97, Mean ± SD, n = 7
Description: 1. DBA/1J mice, male, SPF grade, were pre-acclimatized in the animal facility for one week. 2. On day 1, for the primary immunization, 2 mg/mL bovine type II collagen was mixed thoroughly with an equal volume of complete Freund's adjuvant on ice using a homogenizer until fully emulsified. 100 μL of the collagen emulsion (final concentration 1 mg/mL) was intradermally injected at 2 cm from the base of the mouse tail. Medical iodophor was used to disinfect the tail after injection to prevent tail necrosis, which was conducted for 3 consecutive days. 3. On day 21, bovine type II collagen solution was thoroughly mixed and emulsified with an equal volume of Freund's incomplete adjuvant, using the same method as the primary immunization. 4. On day 26, LPS was administered intraperitoneally at a dose of 50 μg/animal to induce disease. 5. On day 28, the affected mice were scored according to Table 33 and the diameter of their ankle joints was measured. Mice were randomly grouped and treated with medication based on their scores and ankle diameter.

Row | SMILES | IC50 [1] | IC50 [2] | half-life at 1 µM [3] | DC50 (IRAK4) | also measured
1 | CN(C)c1cc2nn([C@H]3CC[C@H](CN4CCC(n5cc6c(F)cc(C7CCC(=O)NC7=O)cc6n5)CC4)CC3)cc2cc1NC(=O)c1cnn2cccnc12 (stereo partly shown) [TM-233] | 3.34 nM | 0.83 nM | 138 min | – | –
2 | CN(C)c1cc2nn([C@H]3CC[C@H](CN4C[C@@H](F)[C@H](n5cc6c(F)cc(N7CCC(=O)NC7=O)cc6n5)C4)CC3)cc2cc1NC(=O)c1cnn2cccnc12 [TM-221] | 7.1 nM | 1.88 nM | – | 8.45 nM | DAI Score d 8 ([4]; 3 mpk, QD): 4.43 ± 1.68; DAI Score d 8 ([4]; 10 mpk, QD): 3.00 ± 1.07; DAI Score d 8 ([4]; 30 mpk, QD): 2.57 ± 2.50
3 | CN(C)c1cc2nn([C@H]3CC[C@H](CN4CCC(n5cc6cc(N7CCC(=O)NC7=O)ccc6n5)CC4)CC3)cc2cc1NC(=O)c1cnn2cccnc12 [TM-3] | 3.53 nM | 0.39 nM | – | 2.76 nM | Human liver microsome (t1/2, min) [3]: 145 min
4 | Cn1c(=O)n(C2CCC(=O)NC2=O)c2cccc(C#CCOC3CCN(C[C@H]4CC[C@H](n5cc(NC(=O)c6cnn7ccc(N8C[C@H]9C[C@@H]8CO9)nc67)c(C(F)F)n5)CC4)CC3)c21 (stereo partly shown) [KT474, reference compound] | – | – | – | – | PASI Score d 6 (IMQ psoriasis model; Model 8.85 ± 1.66): 6.93 ± 2.36; ΔSkin Thickness Change (μm) d 6 (IMQ psoriasis model; Model 80.95 ± 6.16): 31.90 ± 9.90 μm; DAI Score d 8 ([4]; 100 mpk, BID): 5.71 ± 1.28; DAI Score d 42 ([5]; 100 mg/kg): 11.63 ± 2.55
5 | CN(C)c1cc2nn([C@H]3CC[C@H](CN4CC[C@H](n5cc6cc(C7CCC(=O)NC7=O)c(F)cc6n5)[C@H](F)C4)CC3)cc2cc1NC(=O)c1cnn2cccnc12 (stereo partly shown) [TM-132] | 7.83 nM | 3.52 nM | 93.1 min | 0.31 nM | –
6 | C[C@@H]1CCN(C(=O)CC#N)C[C@@H]1N(C)c1ncnc2[nH]ccc12 [tofacitinib, Tofacitinib, reference compound] | – | – | – | – | DAI Score d 42 ([5]; 30 mg/kg): 10.67 ± 3.13
7 | CN(C)c1cc2nn([C@H]3CC[C@H](CN4CC[C@@H](n5cc6cc(F)c(C7CCC(=O)NC7=O)cc6n5)[C@H](F)C4)CC3)cc2cc1NC(=O)c1cnn2cccnc12 (stereo partly shown) [TM-137] | – | 2.4 nM | 92.3 min | 9.41 nM | –
8 | CN(C)c1cc2nn([C@H]3CC[C@H](CN4CCC(n5cc6cc(F)c(C7CCC(=O)NC7=O)cc6n5)CC4)CC3)cc2cc1NC(=O)c1cnn2cccnc12 (stereo partly shown) [TM-6] | – | 1.15 nM | 124 min | 0.7 nM | –
9 | CN(C)c1cc2nn([C@H]3CC[C@H](CN4CC[C@@H](n5cc6cc(C7CCC(=O)NC7=O)c(F)cc6n5)[C@H](F)C4)CC3)cc2cc1NC(=O)c1cnn2cccnc12 (stereo partly shown) [TM-133] | – | 3.55 nM | 107 min | 1.6 nM | –
